Values of other authors as cited in patent US5281421A, “Gemfibrozil formulations” (Warner-Lambert Company, priority 1992, dated 1994).

Conditions: particularly in a highly acidic medium

## Cc1ccc(C)c(OCCCC(C)(C)C(=O)O)c1 [Gemfibrozil, 5-(2,5-dimethylphenoxy)-2,2-dimethylpentanoic acid]
  solubility in water: very poor solubility in water
